Source: US20220265814A1, “R[…] FOR CORONA VIRUS DISEASE 19 AND COMBINATION THERAPY USING THE SAME” (priority 2021, published 2022)

How the values were obtained:
Assay type in all cases: cell-based
[1] = tested on: recombinant adenovirus (GFP tagging); assay: antiviral activity against recombinant adenovirus (GFP fluorescence intensity) in HEK293A cells; details: for inhibition at 50 µM: unidentified adenovirus, HEK293-A, 72 h, read-out: virus inhibitory activity
Experimental: (§1) After dispensing HEK293A cells at 10,000 cells/well on a 96-well plate and stabilizing for 24 hours, the recombinant adenovirus (GFP tagging, MOI=0.5) prepared in Example and 18 compounds listed in Table 1 below (50 μM)) were treated and incubated for 24, 48 and 72 hours, the GFP fluorescence intensity (Excitation=485 nm, Emission=528 nm) was observed.

HEK293A cells = assay: cell death / cytotoxicity in compound-treated HEK293A cells; details: 50 μM compound, after 72 hours of treatment
[2] = tested on: COVID-19 virus (COVID19 recombinant adenovirus); assay: COVID19 antibody-antigen polymerization reaction on combination treatment with ECCA A (Cyto X cell viability)
[3] = tested on: Herpes simplex virus (HSV); assay: antiviral activity against herpes simplex virus (HSV), same manner as the adenovirus test; details: 50 μM, after 24 hours, 48 hours and 72 hours (FIG. 14)
Experimental: as §1
The experiment was performed in the same manner as in the previous experiment, except that the virus type was changed to HSV and the antiviral activity was examined.

## C=C(C)[C@@H]1CC[C@]2(C(=O)O)CC[C@]3(C)[C@H](CC[C@@H]4[C@@]5(C)[C@@H](C(=O)O)[C@H](O)C(C)(C)[C@@H]5CC[C@]43C)[C@@H]12 [Compound C2, Ceanothic acid]
[1]
  inhibition at 50 µM: ≥ 50%

## C=C(C)[C@@H]1CC[C@]2(C(=O)O)CC[C@]3(C)[C@H](CC[C@@H]4[C@@]5(C)C[C@@H](OC(=O)/C=C/c6ccc(O)cc6)[C@H](O)C(C)(C)[C@@H]5CC[C@]43C)[C@@H]12 [Compound C4, 2-O-E-p-coumaroyl alphitolic acid]
HEK293A cells
  cell death: 100%
[1]; 50 μM compound, HEK293A cells, recombinant adenovirus MOI=0.5
  virus inhibitory activity (in words): excellent virus inhibitory activity

## C=C(C)[C@@H]1CC[C@]2(C(=O)O)CC[C@]3(C)[C@H](CC[C@@H]4[C@@]5(C)CC[C@H](O)C(C)(C)[C@@H]5CC[C@]43C)[C@@H]12 [Compound C10, ECCA A]
[1]; 50 μM, after 24 hours, 48 hours and 72 hours (FIG. 13)
  antiviral activity on adenovirus, compared among C2, C6, C8 and C10: most excellent
[1]
  inhibition at 50 µM: ≥ 50%
[2]
  antigen-antibody polymerization reaction: effective antigen-antibody polymerization reaction was confirmed
  binding to the antigen fusion protein: excellent
[3]
  antiviral activity on HSV: most excellent
